Experimental data published in paper PMC12881674, “Activation of TRPV3 channels in bladder cancer cells stimulates ATP release” (Molecular Pharmacology, 2025).

Tested on: KU-19-19 cells
Assay: MTT cell viability/proliferation assay
Type: cell-based, human
Settings: 24 hours, concentrations up to 50 μM
Experimental: To monitor a potential cytotoxicity of individual compounds, 3-(4,5-dimethylthiazol-2-yl)-2,5-diphenyltetrazolium bromide (MTT) assays were performed to assess cell viability and metabolic activity. Cells (5000 per/well) were seeded in PLL-coated 96-well plates and allowed to adhere overnight. After 24 hours, culture medium was exchanged for medium containing indicated drugs, and cells were cultured for another 24 hours. Following treatment with the compounds, 100 μL of medium containing 0.5 mg/mL MTT was added, and cells were incubated for additional 3 hours. The medium was removed, and 100 μL of DMSO was added to dissolve formazan crystals. Absorbance was measured at 560 nm, with a reference wavelength at 670 nm using a plate reader (Polarstar Omega; BMG Labtech). Cell viability was calculated relative to untreated control cells.
Fig. 4 TRPV3 activation by AV3-1 was enhanced by cholesterol supplementation and causes ATP release in KU-19-19 bladder cancer cells. […] Current amplitudes were recorded using voltage ramps from −100 mV to +100 mV (500-millisecond duration) and expressed as current density (pA/pF) measured at +100 mV and −100 mV. (C) Quantification of current densities (pA/pF) at −100 mV (inward current) and +100 mV (outward current) at the time points (1, 2) as indicated in (A, B). […]

## COC(=O)C12CN(Cc3ccccc3)CC1(C(=O)OC)CN(Cc1ccccc1)C2 (stereo not shown) [AV3-1]
  toxicity (cell viability and proliferation, MTT): only minor toxicity
